# Measured values from patent US10750743B2, “Pyridazinone herbicides” (E.I. DU PONT DE NEMOURS AND COMPANY, priority 2015, dated 2020).
# Legend:
# Type in all cases: in vivo
# [1] = system: kochia (Kochia scoparia); test: Test A preemergence, directed soil spray, visual injury rating; conditions: Bassia scoparia, pre-emergence, 240 h, 0 is no effect, 100 is complete control, read-out: Plant response rating (0 to 100 scale), Kochia
# Procedure, shortened: (§1)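 Injury ratings, 0 (no effect) to 100 (complete control), were scored visually versus untreated plants roughly 10 d after treatment under greenhouse conditions. Treatments used surfactant-containing solvent formulations, sprayed onto soil preemergence or onto one- to two-leaf seedlings (2-10 cm) postemergence, grown in a loam-sand mix.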
# [2] = system: ryegrass, It. (Italian ryegrass, Lolium multiflorum); test: as above; conditions: Lolium multiflorum, pre-emergence, 240 h, 0 is no effect, 100 is complete control, read-out: Plant response rating (0 to 100 scale), Ryegrass, It.
# Procedure, shortened: as §1
# [3] = system: foxtail, giant (giant foxtail, Setaria faberii); test: as above; conditions: Setaria faberi, pre-emergence, 240 h, 0 is no effect, 100 is complete control, read-out: Plant response rating (0 to 100 scale), Foxtail, Giant
# Procedure, shortened: as §1
# [4] = system: pigweed (Amaranthus retroflexus); test: as above; conditions: Amaranthus retroflexus, pre-emergence, 240 h, 0 is no effect, 100 is complete control, read-out: Plant response rating (0 to 100 scale), Pigweed
# Procedure, shortened: as §1
# [5] = system: barnyardgrass (Echinochloa crus-galli); test: as above; conditions: Echinochloa crus-galli, pre-emergence, 240 h, 0 is no effect, 100 is complete control, read-out: Plant response rating (0 to 100 scale), Barnyardgrass
# Procedure, shortened: as §1
# [6] = system: ragweed (common ragweed, Ambrosia elatior); test: as above; conditions: Ambrosia artemisiifolia, pre-emergence, 240 h, 0 is no effect, 100 is complete control, read-out: Plant response rating (0 to 100 scale), Ragweed
# Procedure, shortened: as §1
# [7] = system: wheat (Triticum aestivum); test: Test A postemergence application, visual injury rating
# Procedure, shortened: as §1
# [8] = system: kochia (Kochia scoparia); test: as above
# Procedure, shortened: as §1
# [9] = system: ryegrass, It. (Italian ryegrass, Lolium multiflorum); test: as above
# Procedure, shortened: as §1
# [10] = system: foxtail, giant (giant foxtail, Setaria faberii); test: as above
# Procedure, shortened: as §1
# [11] = system: pigweed (Amaranthus retroflexus); test: as above
# Procedure, shortened: as §1
# [12] = system: barnyardgrass (Echinochloa crus-galli); test: as above; conditions: Echinochloa crus-galli, post-emergence, 240 h, 0 to 100 scale, 0 no effect, 100 complete control, read-out: Barnyardgrass plant response rating
# Procedure, shortened: as §1
# [13] = system: galium (catchweed bedstraw, Galium aparine); test: as above
# Procedure, shortened: as §1
# [14] = system: ragweed (common ragweed, Ambrosia elatior); test: as above
# Procedure, shortened: as §1
# [15] = system: corn (Zea mays); test: as above
# Procedure, shortened: as §1
# [16] = system: blackgrass (Alopecurus myosuroides); test: as above; conditions: Alopecurus myosuroides, post-emergence, 240 h, 0 to 100 scale, 0 no effect, 100 complete control, read-out: Blackgrass plant response rating
# Procedure, shortened: as §1
# [17] = system: rice (Oryza sativa); test: Test B flooded paddy test, visual rating; conditions: Oryza sativa, 360 h; Flood, 250 g ai/ha, applied to paddy water, rated after 13 to 15 d; read-out: Rice plant response rating (0 to 100 scale, 0 is no effect, 100 is complete control)
# Procedure, shortened: (§2)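 Ratings use a 0-100 visual scale, where 100 is complete control, and compare treated plants with controls after 13 to 15 d of greenhouse growth. Compound went straight into paddy water kept 3 cm over the soil surface, applied to seedlings at the 2-leaf stage.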
# [18] = system: ducksalad (Heteranthera limosa); test: Test B flooded paddy test, visual rating; conditions: Heteranthera limosa, 360 h; Flood, 250 g ai/ha, applied to paddy water, rated after 13 to 15 d; read-out: Ducksalad plant response rating (0 to 100 scale, 0 is no effect, 100 is complete control)
# Procedure, shortened: as §2
# [19] = system: barnyardgrass (Echinochloa crus-galli); test: Test B flooded paddy test, visual rating; conditions: Echinochloa crus-galli, 360 h; Flood, 250 g ai/ha, applied to paddy water, rated after 13 to 15 d; read-out: Barnyardgrass plant response rating (0 to 100 scale, 0 is no effect, 100 is complete control)
# Procedure, shortened: as §2
# [20] = 31 g ai/ha, 0 is no effect, 100 is complete control
smiles,measurement,setting,value
"Cc1nn(C)c(=O)c(-c2ccc(F)c3ccoc23)c1O [Compound 68, 4-(4-fluoro-7-benzofuranyl)-5-hydroxy-2,6-dimethyl-3(2H)-pyridazinone]",pest or weed control at 31 g/ha,[1]; 31 g ai/ha,30%
same,pest or weed control at 125 g/ha,[1]; 125 g ai/ha,60%
same,pest or weed control at 31 g/ha,[2]; 31 g ai/ha,20%
same,pest or weed control at 125 g/ha,[2]; 125 g ai/ha,80%
same,pest or weed control at 31 g/ha,[3]; 31 g ai/ha,0%
same,pest or weed control at 125 g/ha,[3]; 125 g ai/ha,20%
same,pest or weed control at 31 g/ha,[4]; 31 g ai/ha,0%
same,pest or weed control at 125 g/ha,[4]; 125 g ai/ha,80%
same,pest or weed control at 31 g/ha,[5]; 31 g ai/ha,0%
same,pest or weed control at 125 g/ha,[5]; 125 g ai/ha,20%
same,pest or weed control at 31 g/ha,[6]; 31 g ai/ha,30%
same,pest or weed control at 125 g/ha,[6]; 125 g ai/ha,50%
same,"Plant response rating (0 to 100 scale), Wheat",[7]; [20],0
same,plant injury at 125 g/ha,"[7]; Triticum aestivum, post-emergence, 240 h, 125 g ai/ha, 0 to 100 scale, 0 no effect, 100 complete control, read-out: Wheat plant response rating",0%
same,"Plant response rating (0 to 100 scale), Kochia",[8]; [20],20
same,pest or weed control at 125 g/ha,"[8]; Bassia scoparia, post-emergence, 240 h, 125 g ai/ha, 0 to 100 scale, 0 no effect, 100 complete control, read-out: Kochia plant response rating",90%
same,"Plant response rating (0 to 100 scale), Ryegrass, It.",[9]; [20],80
same,pest or weed control at 125 g/ha,"[9]; Lolium multiflorum, post-emergence, 240 h, 125 g ai/ha, 0 to 100 scale, 0 no effect, 100 complete control, read-out: Ryegrass, It. plant response rating",90%
same,"Plant response rating (0 to 100 scale), Foxtail, Giant",[10]; [20],0
same,pest or weed control at 125 g/ha,"[10]; Setaria faberi, post-emergence, 240 h, 125 g ai/ha, 0 to 100 scale, 0 no effect, 100 complete control, read-out: Foxtail, Giant plant response rating",20%
same,"Plant response rating (0 to 100 scale), Pigweed",[11]; [20],0
same,pest or weed control at 125 g/ha,"[11]; Amaranthus retroflexus, post-emergence, 240 h, 125 g ai/ha, 0 to 100 scale, 0 no effect, 100 complete control, read-out: Pigweed plant response rating",20%
same,pest or weed control at 31 g/ha,[12]; 31 g ai/ha,0%
same,pest or weed control at 125 g/ha,[12]; 125 g ai/ha,10%
same,"Plant response rating (0 to 100 scale), Galium",[13]; [20],60
same,pest or weed control at 125 g/ha,"[13]; Galium, post-emergence, 240 h, 125 g ai/ha, 0 to 100 scale, 0 no effect, 100 complete control, read-out: Galium plant response rating",90%
same,"Plant response rating (0 to 100 scale), Ragweed",[14]; [20],0
same,pest or weed control at 125 g/ha,"[14]; Ambrosia artemisiifolia, post-emergence, 240 h, 125 g ai/ha, 0 to 100 scale, 0 no effect, 100 complete control, read-out: Ragweed plant response rating",10%
same,"Plant response rating (0 to 100 scale), Corn",[15]; [20],0
same,plant injury at 125 g/ha,"[15]; Zea mays, post-emergence, 240 h, 125 g ai/ha, 0 to 100 scale, 0 no effect, 100 complete control, read-out: Corn plant response rating",0%
same,pest or weed control at 31 g/ha,[16]; 31 g ai/ha,0%
same,pest or weed control at 125 g/ha,[16]; 125 g ai/ha,60%
same,plant injury at 250 g/ha,[17],0%
same,pest or weed control at 250 g/ha,[18],0%
same,pest or weed control at 250 g/ha,[19],0%
